This is an account of results in article PMC5855801, “Benzothiophenone Derivatives Targeting Mutant Forms of Estrogen Receptor-α in Hormone-Resistant Breast Cancers” (International Journal of Molecular Sciences, 2018).

The assay concerns the target T1, ERα LBD (Homo sapiens, UniProt P03372).
T1 construct: ERα LBD (amino acids 302–552) was cloned into the pAN4 AviTag™ Vector; made in house
T1 sequence (P03372 302-552): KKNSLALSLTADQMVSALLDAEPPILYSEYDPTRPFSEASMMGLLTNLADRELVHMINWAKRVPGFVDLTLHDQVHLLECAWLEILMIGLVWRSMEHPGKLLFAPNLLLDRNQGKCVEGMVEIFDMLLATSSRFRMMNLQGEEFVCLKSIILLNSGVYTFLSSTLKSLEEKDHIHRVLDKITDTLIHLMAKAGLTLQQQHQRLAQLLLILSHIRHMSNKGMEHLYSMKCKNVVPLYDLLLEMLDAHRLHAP
In words: Biolayer interferometry (BLI) direct binding assay. The settings on record: biotinylated ERα LBD on streptavidin sensor, 3–100 μM. As to the method: The direct binding of small molecules to the ERα-LBD was quantified by BLI using an Octet RED apparatus (Pall ForteBio, Menlo Park, CA, USA). ERα LBD (amino acids 302–552) was cloned into the pAN4 AviTag™ Vector, (Avidity, Aurora, CO, USA). Biotinylated ERα-LBD was purified as described previously. Biotinylated protein (bERα LBD at 0.05 mg/mL) was bound to the super streptavidin sensors (Pall ForteBio) overnight at 4 °C in assay buffer (20 mM Tris, pH 7.5, 500 mM NaCl, 0.2 mM tris(2-carboxyethyl)phosphine TCEP, 0.02 mM E2, 5% glycerol and 5% dimethyl sulfoxide (DMSO). The compounds were dissolved in the assay buffer in a two-fold dilution series ranging from 3.1–100 μM. In all experiments, a known AF2-interacting peptide, PGC-1α (Elim Biopharmaceuticals, Hayward, CA, USA) was used as a control to confirm the functionality of the bERα LBD.
Background: BLI is a label-free optical method that tracks binding on a fibre tip over time.

In the case of `CC(=O)N(/N=C1\Sc2c(C)cccc2C1=O)c1ccccc1Cl` [VPC-16606], the “Direct binding to ERα LBD (BLI)” value is given as “direct reversible interaction”.
